The supplement of paper PMC10733146

Legend:
Assay in all cases: viability relative to DMSO control (fraction); higher = less drug effect (more viable cells)
Settings in all cases: 48 h
CPI-169 = compound: CCS(=O)(=O)N1CCC([C@@H](C)n2c(C)c(C(=O)NCc3c(OC)cc(C)[nH]c3=O)c3ccccc32)CC1 [CPI-169]
Procedure, shortened: (§1)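 Viability was measured as CellTiter-Glo luminescence relative to the median of 16 inner DMSO wells. Primary mononuclear tumour cells, fresh or cryopreserved, were Ficoll-isolated from blood or bone marrow or taken from processed lymph node. They were seeded at 4 × 10^4 cells per well into 384-well plates holding pre-plated compounds at five concentrations, one well each, and kept in RPMI-1640 with penicillin/streptomycin, L-glutamine and human serum at 37 °C and 5% CO2 for 48 h.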

Bendamustine = compound: Cn1c(CCCC(=O)O)nc2cc(N(CCCl)CCCl)ccc21 [Bendamustine]
Procedure, shortened: as §1

SGC 0946 = compound: CC(C)N(CCCNC(=O)Nc1ccc(C(C)(C)C)cc1)C[C@H]1O[C@@H](n2cc(Br)c3c(N)ncnc32)[C@H](O)[C@@H]1O [SGC 0946]
Procedure, shortened: as §1

Palbociclib = compound: CC(=O)c1c(C)c2cnc(Nc3ccc(N4CCNCC4)cn3)nc2n(C2CCCC2)c1=O [Palbociclib]
Procedure, shortened: as §1

Tofacitinib = compound: C[C@@H]1CCN(C(=O)CC#N)C[C@@H]1N(C)c1ncnc2[nH]ccc12 [Tofacitinib]
Procedure, shortened: as §1

Entospletinib = compound: c1cn2cc(-c3ccc4cn[nH]c4c3)nc(Nc3ccc(N4CCOCC4)cc3)c2n1 [Entospletinib]
Procedure, shortened: as §1

Selinexor = compound: O=C(/C=C\n1cnc(-c2cc(C(F)(F)F)cc(C(F)(F)F)c2)n1)NNc1cnccn1 [Selinexor]
Procedure, shortened: as §1

Etoposide = compound: COc1cc([C@@H]2c3cc4c(cc3[C@@H](O[C@@H]3O[C@@H]5CO[C@@H](C)O[C@H]5[C@H](O)[C@H]3O)[C@H]3COC(=O)[C@H]23)OCO4)cc(OC)c1O [Etoposide]
Procedure, shortened: as §1

Roscovitine = compound: CC[C@H](CO)Nc1nc(NCc2ccccc2)c2ncn(C(C)C)c2n1 [Roscovitine]
Procedure, shortened: as §1

Everolimus = compound: CO[C@H]1C[C@@H]2CC[C@@H](C)[C@@](O)(O2)C(=O)C(=O)N2CCCC[C@H]2C(=O)O[C@H]([C@H](C)C[C@@H]2CC[C@@H](OCCO)[C@H](OC)C2)CC(=O)[C@H](C)/C=C(\C)[C@@H](O)[C@@H](OC)C(=O)[C@H](C)C[C@H](C)/C=C/C=C/C=C/1C [Everolimus]
Procedure, shortened: as §1

Barasertib = compound: CCN(CCCOc1ccc2c(Nc3cc(CC(=O)Nc4cccc(F)c4)[nH]n3)ncnc2c1)CCOP(=O)(O)O [Barasertib]
Procedure, shortened: as §1

EPZ-6438 = compound: CCN(c1cc(-c2ccc(CN3CCOCC3)cc2)cc(C(=O)NCc2c(C)cc(C)[nH]c2=O)c1C)C1CCOCC1 [EPZ-6438]
Procedure, shortened: as §1

Midostaurin hydrate = compound: CO[C@@H]1[C@H](N(C)C(=O)c2ccccc2)C[C@H]2O[C@]1(C)n1c3ccccc3c3c4c(c5c6ccccc6n2c5c31)C(=O)NC4 [Midostaurin hydrate]
Procedure, shortened: as §1

primary AML patient cells (S060)
viability (CPI-169; 0.024 µM): 1.07
viability (CPI-169; 0.12 µM): 1.07
viability (CPI-169; 0.6 µM): 1.06
viability (CPI-169; 3 µM): 1.14
viability (CPI-169; 15 µM): 1.18
viability (Bendamustine; 0.032 µM): 1
viability (Bendamustine; 0.16 µM): 0.992
viability (Bendamustine; 0.8 µM): 1.03
viability (Bendamustine; 4 µM): 1.08
viability (Bendamustine; 20 µM): 1.07
viability (SGC 0946; 0.024 µM): 1.02
viability (SGC 0946; 0.12 µM): 1.06
viability (SGC 0946; 0.6 µM): 1
viability (SGC 0946; 3 µM): 0.955
viability (SGC 0946; 15 µM): 0.822
viability (Palbociclib; 0.024 µM): 1.02
viability (Palbociclib; 0.12 µM): 1
viability (Palbociclib; 0.6 µM): 1.01
viability (Palbociclib; 3 µM): 0.939
viability (Palbociclib; 15 µM): 0.611
viability (Tofacitinib; 0.024 µM): 0.977
viability (Tofacitinib; 0.12 µM): 0.93
viability (Tofacitinib; 0.6 µM): 0.946
viability (Tofacitinib; 3 µM): 0.893
viability (Tofacitinib; 15 µM): 0.907
viability (Entospletinib; 0.024 µM): 0.993
viability (Entospletinib; 0.12 µM): 1.03
viability (Entospletinib; 0.6 µM): 1
viability (Entospletinib; 3 µM): 1.06
viability (Entospletinib; 15 µM): 1.08
viability (Selinexor; 0.008 µM): 1.04
viability (Selinexor; 0.04 µM): 1.01
viability (Selinexor; 0.2 µM): 1.01
viability (Selinexor; 1 µM): 1.03
viability (Selinexor; 5 µM): 0.853
viability (Etoposide; 0.032 µM): 1.06
viability (Etoposide; 0.16 µM): 0.964
viability (Etoposide; 0.8 µM): 1.01
viability (Etoposide; 4 µM): 1.13
viability (Etoposide; 20 µM): 1.1
viability (Roscovitine; 0.032 µM): 1.03
viability (Roscovitine; 0.16 µM): 1.07
viability (Roscovitine; 0.8 µM): 1.01
viability (Roscovitine; 4 µM): 1.06
viability (Roscovitine; 20 µM): 0.837
viability (Everolimus; 0.0032 µM): 1.02
viability (Everolimus; 0.016 µM): 1.03
viability (Everolimus; 0.08 µM): 1
viability (Everolimus; 0.4 µM): 1.08
viability (Everolimus; 2 µM): 1.02
viability (Barasertib; 0.0008 µM): 0.905
viability (Barasertib; 0.004 µM): 0.901
viability (Barasertib; 0.02 µM): 0.935
viability (Barasertib; 0.1 µM): 0.907
viability (Barasertib; 0.5 µM): 0.949
viability (EPZ-6438; 0.024 µM): 1.02
viability (EPZ-6438; 0.12 µM): 1.05
viability (EPZ-6438; 0.6 µM): 1.03
viability (EPZ-6438; 3 µM): 1.05
viability (EPZ-6438; 15 µM): 1.05
viability (Midostaurin hydrate; 0.024 µM): 1.06
viability (Midostaurin hydrate; 0.12 µM): 1.02
viability (Midostaurin hydrate; 0.6 µM): 1.07
viability (Midostaurin hydrate; 3 µM): 1.08
viability (Midostaurin hydrate; 15 µM): 1.07

primary AML patient cells (S009)
viability (CPI-169; 0.024 µM): 0.909
viability (CPI-169; 0.12 µM): 0.945
viability (CPI-169; 0.6 µM): 0.972
viability (CPI-169; 3 µM): 0.931
viability (CPI-169; 15 µM): 0.954
viability (Bendamustine; 0.032 µM): 1
viability (Bendamustine; 0.16 µM): 0.967
viability (Bendamustine; 0.8 µM): 1.01
viability (Bendamustine; 4 µM): 0.776
viability (Bendamustine; 20 µM): 0.656
viability (SGC 0946; 0.024 µM): 0.93
viability (SGC 0946; 0.12 µM): 0.949
viability (SGC 0946; 0.6 µM): 0.929
viability (SGC 0946; 3 µM): 0.834
viability (SGC 0946; 15 µM): 0.627
viability (Palbociclib; 0.024 µM): 0.962
viability (Palbociclib; 0.12 µM): 0.99
viability (Palbociclib; 0.6 µM): 0.875
viability (Palbociclib; 3 µM): 0.814
viability (Palbociclib; 15 µM): 0.436
viability (Tofacitinib; 0.024 µM): 0.942
viability (Tofacitinib; 0.12 µM): 0.881
viability (Tofacitinib; 0.6 µM): 0.868
viability (Tofacitinib; 3 µM): 0.944
viability (Tofacitinib; 15 µM): 1.03
viability (Entospletinib; 0.024 µM): 0.952
viability (Entospletinib; 0.12 µM): 1.14
viability (Entospletinib; 0.6 µM): 1.15
viability (Entospletinib; 3 µM): 1.12
viability (Entospletinib; 15 µM): 0.876
viability (Selinexor; 0.008 µM): 0.911
viability (Selinexor; 0.04 µM): 0.798
viability (Selinexor; 0.2 µM): 0.71
viability (Selinexor; 1 µM): 0.535
viability (Selinexor; 5 µM): 0.498
viability (Etoposide; 0.032 µM): 1.02
viability (Etoposide; 0.16 µM): 1.02
viability (Etoposide; 0.8 µM): 1.1
viability (Etoposide; 4 µM): 0.781
viability (Etoposide; 20 µM): 0.625
viability (Roscovitine; 0.032 µM): 0.946
viability (Roscovitine; 0.16 µM): 1.03
viability (Roscovitine; 0.8 µM): 1.05
viability (Roscovitine; 4 µM): 1.01
viability (Roscovitine; 20 µM): 0.642
viability (Everolimus; 0.0032 µM): 0.82
viability (Everolimus; 0.016 µM): 0.871
viability (Everolimus; 0.08 µM): 0.792
viability (Everolimus; 0.4 µM): 0.779
viability (Everolimus; 2 µM): 0.812
viability (Barasertib; 0.0008 µM): 1.06
viability (Barasertib; 0.004 µM): 0.985
viability (Barasertib; 0.02 µM): 0.935
viability (Barasertib; 0.1 µM): 0.918
viability (Barasertib; 0.5 µM): 0.856
viability (EPZ-6438; 0.024 µM): 1.04
viability (EPZ-6438; 0.12 µM): 1.08
viability (EPZ-6438; 0.6 µM): 1.12
viability (EPZ-6438; 3 µM): 1.06
viability (EPZ-6438; 15 µM): 0.96
viability (Midostaurin hydrate; 0.024 µM): 0.972
viability (Midostaurin hydrate; 0.12 µM): 0.97
viability (Midostaurin hydrate; 0.6 µM): 1.03
viability (Midostaurin hydrate; 3 µM): 0.99
viability (Midostaurin hydrate; 15 µM): 0.934

primary BL patient cells (S005)
viability (CPI-169; 0.024 µM): 1.04
viability (CPI-169; 0.12 µM): 1.03
viability (CPI-169; 0.6 µM): 1.12
viability (CPI-169; 3 µM): 1.07
viability (CPI-169; 15 µM): 1.1
viability (Bendamustine; 0.032 µM): 1.01
viability (Bendamustine; 0.16 µM): 1.06
viability (Bendamustine; 0.8 µM): 1.02
viability (Bendamustine; 4 µM): 1.01
viability (Bendamustine; 20 µM): 1.07
viability (SGC 0946; 0.024 µM): 1.08
viability (SGC 0946; 0.12 µM): 1.09
viability (SGC 0946; 0.6 µM): 0.927
viability (SGC 0946; 3 µM): 1.01
viability (SGC 0946; 15 µM): 0.712
viability (Palbociclib; 0.024 µM): 0.948
viability (Palbociclib; 0.12 µM): 1.16
viability (Palbociclib; 0.6 µM): 0.873
viability (Palbociclib; 3 µM): 1.06
viability (Palbociclib; 15 µM): 0.825
viability (Tofacitinib; 0.024 µM): 0.965
viability (Tofacitinib; 0.12 µM): 0.944
viability (Tofacitinib; 0.6 µM): 0.917
viability (Tofacitinib; 3 µM): 0.939
viability (Tofacitinib; 15 µM): 0.823
viability (Entospletinib; 0.024 µM): 1.01
viability (Entospletinib; 0.12 µM): 0.996
viability (Entospletinib; 0.6 µM): 1.06
viability (Entospletinib; 3 µM): 1.08
viability (Entospletinib; 15 µM): 0.986
viability (Selinexor; 0.008 µM): 0.977
viability (Selinexor; 0.04 µM): 0.923
viability (Selinexor; 0.2 µM): 0.928
viability (Selinexor; 1 µM): 0.81
viability (Selinexor; 5 µM): 0.743
viability (Etoposide; 0.032 µM): 1
viability (Etoposide; 0.16 µM): 1.22
viability (Etoposide; 0.8 µM): 1.3
viability (Etoposide; 4 µM): 1.05
viability (Etoposide; 20 µM): 1.12
viability (Roscovitine; 0.032 µM): 1.01
viability (Roscovitine; 0.16 µM): 1.56
viability (Roscovitine; 0.8 µM): 1.01
viability (Roscovitine; 4 µM): 1.6
viability (Roscovitine; 20 µM): 1.37
viability (Everolimus; 0.0032 µM): 0.819
viability (Everolimus; 0.016 µM): 0.837
viability (Everolimus; 0.08 µM): 0.787
viability (Everolimus; 0.4 µM): 0.848
viability (Everolimus; 2 µM): 0.8
viability (Barasertib; 0.0008 µM): 1.38
viability (Barasertib; 0.004 µM): 1.33
viability (Barasertib; 0.02 µM): 0.929
viability (Barasertib; 0.1 µM): 0.856
viability (Barasertib; 0.5 µM): 0.917
viability (EPZ-6438; 0.024 µM): 1.15
viability (EPZ-6438; 0.12 µM): 1.18
viability (EPZ-6438; 0.6 µM): 1.04
viability (EPZ-6438; 3 µM): 1.08
viability (EPZ-6438; 15 µM): 0.967
viability (Midostaurin hydrate; 0.024 µM): 0.905
viability (Midostaurin hydrate; 0.12 µM): 0.92
viability (Midostaurin hydrate; 0.6 µM): 1.02
viability (Midostaurin hydrate; 3 µM): 0.896
viability (Midostaurin hydrate; 15 µM): 0.77
